# Key:
# [1] = biological target: T1, β-glucuronidase (bovine liver) (Bos taurus, UniProt A3KMY8); set-up: key: NI = no inhibition; settings: typical DNJ inhibitory activity shown for reference, in words; cited from earlier work
# T1 construct: purchased Sigma-Aldrich; host or cells: bovine liver
# T1 sequence (A3KMY8 1-652): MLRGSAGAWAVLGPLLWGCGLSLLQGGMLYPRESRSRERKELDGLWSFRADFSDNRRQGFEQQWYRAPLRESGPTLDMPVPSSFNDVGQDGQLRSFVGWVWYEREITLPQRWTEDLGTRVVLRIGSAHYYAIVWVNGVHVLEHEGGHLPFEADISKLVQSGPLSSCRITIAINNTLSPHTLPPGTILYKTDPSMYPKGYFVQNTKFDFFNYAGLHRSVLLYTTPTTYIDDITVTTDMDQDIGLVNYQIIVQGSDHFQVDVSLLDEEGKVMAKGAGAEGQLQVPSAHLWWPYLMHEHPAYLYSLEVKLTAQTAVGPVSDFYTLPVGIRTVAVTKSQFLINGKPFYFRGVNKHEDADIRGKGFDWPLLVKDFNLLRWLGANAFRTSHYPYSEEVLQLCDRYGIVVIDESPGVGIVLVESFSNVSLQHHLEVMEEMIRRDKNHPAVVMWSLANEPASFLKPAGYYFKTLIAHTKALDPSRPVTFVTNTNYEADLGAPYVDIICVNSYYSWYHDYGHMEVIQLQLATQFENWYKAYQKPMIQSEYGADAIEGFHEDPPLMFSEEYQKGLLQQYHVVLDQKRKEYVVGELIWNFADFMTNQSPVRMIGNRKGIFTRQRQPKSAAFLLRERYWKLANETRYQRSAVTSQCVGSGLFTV
# [2] = biological target: T2, α-D-mannosidase (Jack bean) (Canavalia ensiformis, UniProt C0HJB3); settings: typical DNJ inhibitory activity shown for reference, in words; cited from earlier work
# T2 construct: purchased Sigma-Aldrich
# T2 sequence (C0HJB3 1-562 limits assumed): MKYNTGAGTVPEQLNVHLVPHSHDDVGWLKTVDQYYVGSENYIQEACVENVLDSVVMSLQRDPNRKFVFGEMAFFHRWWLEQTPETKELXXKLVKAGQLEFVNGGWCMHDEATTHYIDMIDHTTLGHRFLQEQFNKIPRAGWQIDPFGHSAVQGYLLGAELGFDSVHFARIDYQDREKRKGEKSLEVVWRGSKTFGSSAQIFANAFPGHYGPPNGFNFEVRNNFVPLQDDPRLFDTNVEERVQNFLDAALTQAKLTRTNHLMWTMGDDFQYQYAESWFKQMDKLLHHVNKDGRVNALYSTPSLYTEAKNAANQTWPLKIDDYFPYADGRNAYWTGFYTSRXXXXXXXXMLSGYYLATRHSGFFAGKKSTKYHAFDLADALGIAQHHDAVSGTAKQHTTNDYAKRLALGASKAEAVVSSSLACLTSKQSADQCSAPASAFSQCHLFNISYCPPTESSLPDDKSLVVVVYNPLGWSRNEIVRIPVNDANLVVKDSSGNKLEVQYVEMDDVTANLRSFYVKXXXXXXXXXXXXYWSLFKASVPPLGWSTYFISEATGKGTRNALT
# α-D-glucosidase (rice) = biological target: T3, α-D-glucosidase (rice) (Oryza sativa subsp. japonica, UniProt Q653V7); settings: typical DNJ inhibitory activity shown for reference, in words; cited from earlier work
# T3 construct: purchased Sigma-Aldrich
# T3 sequence (Q653V7 34-885): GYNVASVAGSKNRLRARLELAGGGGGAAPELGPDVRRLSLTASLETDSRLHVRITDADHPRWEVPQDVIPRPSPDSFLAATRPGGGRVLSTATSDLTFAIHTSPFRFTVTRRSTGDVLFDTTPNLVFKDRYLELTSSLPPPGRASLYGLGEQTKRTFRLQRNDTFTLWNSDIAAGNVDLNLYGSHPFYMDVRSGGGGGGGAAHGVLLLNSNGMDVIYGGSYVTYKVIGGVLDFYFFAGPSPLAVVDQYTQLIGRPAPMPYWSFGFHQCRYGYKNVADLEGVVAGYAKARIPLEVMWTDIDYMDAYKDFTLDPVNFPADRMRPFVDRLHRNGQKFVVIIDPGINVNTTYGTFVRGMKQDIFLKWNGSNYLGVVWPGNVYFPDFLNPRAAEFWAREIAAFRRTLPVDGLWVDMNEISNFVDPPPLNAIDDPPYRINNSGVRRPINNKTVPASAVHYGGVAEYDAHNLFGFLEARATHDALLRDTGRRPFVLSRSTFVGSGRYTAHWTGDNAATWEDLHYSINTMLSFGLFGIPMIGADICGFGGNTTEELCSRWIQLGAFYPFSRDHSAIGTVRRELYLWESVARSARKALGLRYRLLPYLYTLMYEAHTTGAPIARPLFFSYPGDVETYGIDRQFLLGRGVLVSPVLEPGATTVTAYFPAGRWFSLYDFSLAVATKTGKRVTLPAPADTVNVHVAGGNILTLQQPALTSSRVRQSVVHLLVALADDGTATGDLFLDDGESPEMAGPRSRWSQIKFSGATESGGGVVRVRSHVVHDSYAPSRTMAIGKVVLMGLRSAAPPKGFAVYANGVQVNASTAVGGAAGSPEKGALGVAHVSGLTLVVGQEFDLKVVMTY
# [3] = test system: naringinase (P. decumbens); set-up: key: NI = no inhibition; settings: typical DNJ inhibitory activity shown for reference, in words; cited from earlier work
# [4] = test system: β-D-mannosidase Cellulomonas fimi; set-up: key: NI = no inhibition; settings: typical DNJ inhibitory activity shown for reference, in words; cited from earlier work
# [5] = test system: N-acetyl-β-D-gluc (Bovine kidney); set-up: key: NI = no inhibition; settings: typical DNJ inhibitory activity shown for reference, in words; cited from earlier work
# [6] = biological target: T4, α-D-galactosidase (green coffee bean) (Coffea arabica, UniProt Q42656); settings: typical DNJ inhibitory activity shown for reference, in words; cited from earlier work
# T4 construct: purchased Sigma-Aldrich
# T4 sequence (Q42656 16-378): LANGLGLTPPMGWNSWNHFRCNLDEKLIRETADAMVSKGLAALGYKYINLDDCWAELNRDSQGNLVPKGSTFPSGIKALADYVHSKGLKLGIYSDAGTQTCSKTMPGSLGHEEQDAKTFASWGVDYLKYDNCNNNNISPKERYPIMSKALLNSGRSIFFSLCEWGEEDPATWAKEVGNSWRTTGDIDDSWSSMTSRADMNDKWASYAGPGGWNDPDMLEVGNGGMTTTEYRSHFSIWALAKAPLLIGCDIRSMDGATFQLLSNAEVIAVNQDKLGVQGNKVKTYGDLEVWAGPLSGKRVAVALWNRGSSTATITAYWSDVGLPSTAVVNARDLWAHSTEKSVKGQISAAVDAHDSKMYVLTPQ
# glycogen phosphorylase = assay: Glycogen phosphorylase assay; assay type: biochemical; settings: words, no concentration
compound,measurement,setting,value
"OC[C@H]1NC[C@H](O)[C@@H](O)[C@@H]1O [DNJ, 1 deoxynojirmycin]","β-glucuronidase (bovine liver), typical DNJ inhibitory activity",[1],NI
same,"α-D-man Jack bean, typical DNJ inhibitory activity",[2],weak
same,"α-D-glu rice, typical DNJ inhibitory activity",α-D-glucosidase (rice),potent
same,"naringinase Penecillium, typical DNJ inhibitory activity",[3],NI
same,"β-D-man Cellulomonas, typical DNJ inhibitory activity",[4],NI
same,"N-acetyl-β-D-gluc (Bovine kidney, typical DNJ inhibitory activity)",[5],NI
same,"α-D-gal green coffee bean, typical DNJ inhibitory activity",[6],weak
same,glycogen phosphorylase inhibition,glycogen phosphorylase,do not inhibit
